The results in this text go back to ChEMBL document CHEMBL1201862, “PubChem BioAssay data set” (2004).

The target in experiment [1] is T1, Short transient receptor potential channel 4 (Mus musculus, UniProt Q9QUQ5).
T1 sequence (Q9QUQ5 whole entry): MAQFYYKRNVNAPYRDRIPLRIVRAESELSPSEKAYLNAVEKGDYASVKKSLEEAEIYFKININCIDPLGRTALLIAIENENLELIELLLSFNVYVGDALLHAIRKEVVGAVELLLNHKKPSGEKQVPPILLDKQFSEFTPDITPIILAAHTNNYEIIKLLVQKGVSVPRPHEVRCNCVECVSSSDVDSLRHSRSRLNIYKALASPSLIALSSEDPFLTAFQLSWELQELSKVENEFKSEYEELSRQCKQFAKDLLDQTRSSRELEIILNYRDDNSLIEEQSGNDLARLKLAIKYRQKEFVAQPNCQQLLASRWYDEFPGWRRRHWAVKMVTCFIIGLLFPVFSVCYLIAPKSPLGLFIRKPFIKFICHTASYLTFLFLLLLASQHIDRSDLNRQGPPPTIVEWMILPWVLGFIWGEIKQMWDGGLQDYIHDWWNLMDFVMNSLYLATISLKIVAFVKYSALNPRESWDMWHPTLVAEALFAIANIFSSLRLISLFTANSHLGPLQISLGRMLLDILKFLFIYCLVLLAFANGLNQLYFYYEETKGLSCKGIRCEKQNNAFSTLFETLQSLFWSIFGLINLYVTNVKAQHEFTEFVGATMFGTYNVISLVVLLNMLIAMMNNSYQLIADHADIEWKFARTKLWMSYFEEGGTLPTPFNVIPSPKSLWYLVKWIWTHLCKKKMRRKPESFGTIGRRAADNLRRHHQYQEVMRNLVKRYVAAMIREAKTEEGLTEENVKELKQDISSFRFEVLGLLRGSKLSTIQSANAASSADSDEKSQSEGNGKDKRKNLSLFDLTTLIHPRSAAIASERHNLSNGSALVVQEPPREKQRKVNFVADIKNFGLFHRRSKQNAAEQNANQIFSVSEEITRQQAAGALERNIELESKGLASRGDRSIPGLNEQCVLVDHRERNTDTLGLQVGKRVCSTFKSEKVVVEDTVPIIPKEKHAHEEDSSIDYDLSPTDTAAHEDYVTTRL
Kind of experiment: mouse TRPC4 channel inhibitors, dose response, cell-based, HEK293 TRPC4/mu-opioid, Fluo-4 calcium (AID 434942).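 Also: potency of inhibitors blocking the TRPC4 calcium response.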 In kind it is functional.

Experiment [2] is described as follows: NIH-3T3 fibroblast cytotoxicity, dose response, cytotoxicity control, cell-based, fluorescence, Alamar Blue, secondary assay (AID 2327).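 Also: NIH-3T3 mouse fibroblasts cultured with fluconazole at 8 µg/mL.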 In kind it is functional.
Experiment [3] is described as follows: C. albicans growth with fluconazole, confirmation, fluorescence, retest (AID 2467). The format is functional, cell-based.
Experiment [4] addresses T2, Protein skinhead-1 (Caenorhabditis elegans, UniProt P34707).
T2 sequence (P34707 whole entry): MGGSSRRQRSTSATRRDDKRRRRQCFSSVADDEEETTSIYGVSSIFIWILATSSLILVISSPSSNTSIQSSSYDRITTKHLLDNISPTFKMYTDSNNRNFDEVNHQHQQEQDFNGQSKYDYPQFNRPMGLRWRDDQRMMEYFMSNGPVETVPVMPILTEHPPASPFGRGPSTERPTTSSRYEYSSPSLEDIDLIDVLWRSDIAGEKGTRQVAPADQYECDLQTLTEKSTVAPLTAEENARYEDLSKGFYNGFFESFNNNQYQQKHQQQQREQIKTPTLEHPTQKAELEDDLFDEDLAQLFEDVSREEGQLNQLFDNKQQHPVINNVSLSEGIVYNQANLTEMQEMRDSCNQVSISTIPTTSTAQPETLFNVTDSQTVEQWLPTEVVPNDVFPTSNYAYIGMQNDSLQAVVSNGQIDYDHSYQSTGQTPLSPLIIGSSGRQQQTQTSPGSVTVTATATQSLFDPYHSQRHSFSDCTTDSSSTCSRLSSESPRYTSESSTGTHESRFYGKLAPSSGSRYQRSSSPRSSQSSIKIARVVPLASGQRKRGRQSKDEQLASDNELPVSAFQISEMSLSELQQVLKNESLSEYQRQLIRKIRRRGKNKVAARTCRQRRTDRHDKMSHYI
In kind it is functional.

Experiment [5] deals with Cytochrome P450 2D6 (Homo sapiens, UniProt P10635).
The target of experiment [6] is Cytochrome P450 2C19 (Homo sapiens, UniProt P33261). Kind of experiment: Cytochrome panel assay with activity outcomes. Panel member name: p450-cyp2c19 Compounds with AC50 equal or less than 10 uM are considered active. The format is functional. Conditions: read-out: AC50.
Experiment [7] has as its target T3, Cytochrome P450 1A2 (Homo sapiens, UniProt P05177).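 Also: PubChem cytochrome P450 panel assay, CYP1A2 panel member.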
T3 sequence (P05177 whole entry): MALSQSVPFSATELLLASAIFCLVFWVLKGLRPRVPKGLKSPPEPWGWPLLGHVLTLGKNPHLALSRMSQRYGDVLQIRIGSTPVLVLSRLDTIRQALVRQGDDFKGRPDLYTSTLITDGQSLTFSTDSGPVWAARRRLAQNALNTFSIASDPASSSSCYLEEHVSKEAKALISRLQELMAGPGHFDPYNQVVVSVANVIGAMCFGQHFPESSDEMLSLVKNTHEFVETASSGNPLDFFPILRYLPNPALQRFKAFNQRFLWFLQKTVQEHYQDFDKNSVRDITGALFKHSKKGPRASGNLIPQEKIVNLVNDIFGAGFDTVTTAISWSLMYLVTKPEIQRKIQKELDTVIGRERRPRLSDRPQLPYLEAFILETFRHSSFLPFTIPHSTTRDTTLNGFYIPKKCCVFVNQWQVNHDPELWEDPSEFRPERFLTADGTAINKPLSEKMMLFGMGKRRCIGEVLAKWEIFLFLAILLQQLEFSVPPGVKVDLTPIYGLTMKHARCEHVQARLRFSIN

For experiment [8], the target named is Cytochrome P450 2C9 (Homo sapiens, UniProt P11712).
The target of experiment [9] is Cytochrome P450 3A4 (Homo sapiens, UniProt P08684).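 Also: CYP3A4 tested as one member of a cytochrome P450 panel screen.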
A short description of experiment [10]: inhibitors of intracellular T. cruzi replication, confirmation, NIH3T3 host cells, beta-gal luminescence (AID 2044).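 Also: intracellular parasites grown in NIH/3T3 mouse fibroblasts as host cells; luminescent beta-galactosidase reporter signal from transgenic T. cruzi replicating inside host cells; inhibitors lower the luminescence signal.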 In kind it is functional, cell-based.
Experiment [11] is described as follows: cytotoxicity toward NIH3T3 fibroblasts, dose response, counter-screen, cell-based, ATP luminescence, mouse fibroblasts (AID 2010).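 Also: cells exposed to compound for about 90 hours before reading.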 In kind it is functional. For orientation: The purpose of a counterscreen is to sort out artefacts and off-target activity.
The target of experiment [12] is T4, Heat shock factor protein 1 (Mus musculus, UniProt P38532).
T4 sequence (P38532 whole entry): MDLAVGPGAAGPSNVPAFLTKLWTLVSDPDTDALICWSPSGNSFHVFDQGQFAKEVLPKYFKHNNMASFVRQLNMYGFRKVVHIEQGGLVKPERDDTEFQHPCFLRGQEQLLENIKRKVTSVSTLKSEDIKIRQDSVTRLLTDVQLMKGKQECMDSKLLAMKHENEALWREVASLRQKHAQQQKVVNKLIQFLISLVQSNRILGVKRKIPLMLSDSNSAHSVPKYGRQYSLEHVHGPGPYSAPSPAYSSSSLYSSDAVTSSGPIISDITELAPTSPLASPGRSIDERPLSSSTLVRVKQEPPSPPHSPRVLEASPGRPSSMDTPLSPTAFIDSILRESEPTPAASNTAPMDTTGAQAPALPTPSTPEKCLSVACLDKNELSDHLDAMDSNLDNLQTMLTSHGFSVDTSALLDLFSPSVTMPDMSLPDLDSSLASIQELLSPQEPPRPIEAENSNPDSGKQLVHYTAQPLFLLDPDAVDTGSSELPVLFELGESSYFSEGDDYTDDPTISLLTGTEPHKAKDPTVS
Kind of experiment: HSF1 potentiators in luciferase reporter cells, confirmation, cell-based, NIH3T3, luminescence, dose retest (AID 435004).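 Also: stress induced by proteasome inhibitor MG132 added 30 min after compound; luciferase reporter driven by HSF1 response element in NIH3T3 cells; actives raise luminescence as potentiators of the MG132 stress response.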 In kind it is functional.

Values joined by “and” are separate entries in the source; they are usually repeats but may differ in a detail not shown here. Identical values can stand only once. Active and inactive are the calls of the source.

Chain of Cytochrome P450 2C9 (P11712 whole entry): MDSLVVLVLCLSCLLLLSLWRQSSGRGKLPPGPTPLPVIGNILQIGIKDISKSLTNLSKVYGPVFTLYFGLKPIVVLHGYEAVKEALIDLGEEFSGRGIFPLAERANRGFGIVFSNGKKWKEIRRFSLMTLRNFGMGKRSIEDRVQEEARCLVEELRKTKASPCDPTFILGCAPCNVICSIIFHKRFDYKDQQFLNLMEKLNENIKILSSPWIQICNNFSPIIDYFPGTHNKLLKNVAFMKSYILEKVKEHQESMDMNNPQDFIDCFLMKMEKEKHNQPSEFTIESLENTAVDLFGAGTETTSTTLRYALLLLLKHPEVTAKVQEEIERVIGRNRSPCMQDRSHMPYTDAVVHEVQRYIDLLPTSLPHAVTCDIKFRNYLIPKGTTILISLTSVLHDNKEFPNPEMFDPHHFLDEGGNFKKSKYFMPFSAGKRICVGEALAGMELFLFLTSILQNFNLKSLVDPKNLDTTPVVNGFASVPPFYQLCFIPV
Chain of Cytochrome P450 2D6 (P10635 whole entry): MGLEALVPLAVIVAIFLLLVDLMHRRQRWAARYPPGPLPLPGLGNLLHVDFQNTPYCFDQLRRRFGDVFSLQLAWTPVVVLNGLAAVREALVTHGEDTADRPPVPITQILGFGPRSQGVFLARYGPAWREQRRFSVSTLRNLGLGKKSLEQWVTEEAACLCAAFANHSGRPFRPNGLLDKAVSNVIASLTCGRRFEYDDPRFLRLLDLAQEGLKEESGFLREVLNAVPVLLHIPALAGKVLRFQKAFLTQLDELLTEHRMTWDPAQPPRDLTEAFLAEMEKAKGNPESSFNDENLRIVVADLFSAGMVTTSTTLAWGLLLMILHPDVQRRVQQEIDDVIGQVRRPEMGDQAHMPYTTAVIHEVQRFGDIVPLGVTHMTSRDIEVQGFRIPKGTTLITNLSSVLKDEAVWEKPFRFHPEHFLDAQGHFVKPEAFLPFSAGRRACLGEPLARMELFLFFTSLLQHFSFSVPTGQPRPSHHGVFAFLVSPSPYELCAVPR
Chain of Cytochrome P450 3A4 (P08684 whole entry): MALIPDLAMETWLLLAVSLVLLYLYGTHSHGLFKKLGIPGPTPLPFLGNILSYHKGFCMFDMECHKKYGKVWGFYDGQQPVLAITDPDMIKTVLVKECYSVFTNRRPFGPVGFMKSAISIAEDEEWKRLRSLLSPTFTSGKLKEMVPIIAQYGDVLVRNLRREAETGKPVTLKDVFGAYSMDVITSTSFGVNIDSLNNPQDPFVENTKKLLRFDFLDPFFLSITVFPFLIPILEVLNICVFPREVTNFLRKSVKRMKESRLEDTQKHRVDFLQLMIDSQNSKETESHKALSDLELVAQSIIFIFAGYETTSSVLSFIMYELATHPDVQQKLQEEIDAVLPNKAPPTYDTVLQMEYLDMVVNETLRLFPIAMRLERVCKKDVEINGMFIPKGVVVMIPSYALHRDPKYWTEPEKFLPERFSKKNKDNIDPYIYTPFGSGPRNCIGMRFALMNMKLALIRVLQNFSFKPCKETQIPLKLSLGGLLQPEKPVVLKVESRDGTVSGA
Chain of Cytochrome P450 2C19 (P33261 whole entry): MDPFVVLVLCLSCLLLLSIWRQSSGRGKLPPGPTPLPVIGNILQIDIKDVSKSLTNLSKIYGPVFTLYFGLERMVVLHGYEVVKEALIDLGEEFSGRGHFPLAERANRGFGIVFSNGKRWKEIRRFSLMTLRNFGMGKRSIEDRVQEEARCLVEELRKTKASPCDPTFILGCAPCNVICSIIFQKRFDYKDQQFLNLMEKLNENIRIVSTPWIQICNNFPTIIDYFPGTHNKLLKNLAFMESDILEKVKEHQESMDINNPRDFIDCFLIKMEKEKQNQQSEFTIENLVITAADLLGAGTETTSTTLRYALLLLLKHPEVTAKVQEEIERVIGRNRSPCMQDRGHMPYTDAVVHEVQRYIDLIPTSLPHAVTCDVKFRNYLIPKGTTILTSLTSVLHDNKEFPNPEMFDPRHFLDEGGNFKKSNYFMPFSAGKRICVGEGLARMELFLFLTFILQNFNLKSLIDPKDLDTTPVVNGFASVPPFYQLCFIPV

Consider `CN(Cc1cnn(C)c1)C(=O)c1ccc(OC2CCN(CCc3ccccc3)CC2)cc1`, for which, in [1], the EC50 (commonly the concentration giving half of the maximal effect) is 1.5 µM (active). Consider `CC(C)c1noc2ncc(C(=O)c3cc(Cl)cc(Cl)c3O)cc12`, for which the EC50 was > 160 µM (inactive) in [2] and 3.63 µM (active) in experiment [3]. The corresponding values for `C=CCSc1nc(-c2ccc(OCCC)cc2)n[nH]1` are > 150 µM (inactive) and > 38 µM (not active). As for `CCC(C)(C)NC(=O)C(c1cccn1C)N(C(=O)Cn1nnc2ccccc21)c1ccc(OC)cc1OC` (configuration not stated), the IC50 (as a rule, the point on the concentration scale where inhibition reaches its midpoint) in [4] is > 100 µM (inactive). As to `O=C(Nc1ccccc1)c1c[nH]cn1`, the IC50 in experiment [4] was > 100 µM (inactive). With `Cc1ccc(C[n+]2cc(-c3ccc(Cl)cc3)n3c2CCC3)cc1`, in experiment [1], the EC50 is 2.37 µM (active).

Take `CCC1CCc2c(c3ccccc3[nH]c2=O)O1` (configuration not stated): the values for the AC50 in experiment [5] and in experiment [6] were 39.8 µM (inconclusive) and 17.8 µM (inconclusive), respectively. Consider `Cc1ccc(Cn2c(=N)n(CC(O)c3ccco3)c3ccccc32)cc1` (configuration not stated), for which the EC50 in experiment [1] was 1.88 µM (active).

`COc1ccc2c(c1)OC/C(=C/c1cccs1)C2=O`: the IC50 in experiment [4] is 28.7 µM (active). Still for that read-out and setting: to `O=C(Nc1ccc2c(c1)CN(C(=O)Nc1ccc(F)cc1)CC2)c1ccccn1` belongs > 100 µM (inactive). On the same count and under the same terms, to `Fc1ccccc1N=C(S)NN(Cc1ccccc1)c1ccccc1` belongs > 100 µM (inactive); to `CCCN1C2CCCC1CC(NC(=O)c1ccc(F)cc1)C2` (configuration not stated), > 100 µM (inactive). Turning to `O=c1c2ccccc2nc(-c2ccc(Br)cc2)n1Cc1ccccc1`, the AC50 (commonly the concentration giving half of the maximal activity seen) in experiment [5] was 25.1 µM (inconclusive).

Consider `COc1cccc(C(=O)C2CCCN(Cc3cccn3-c3ccccn3)C2)c1` (configuration not stated), for which the EC50 in experiment [1] was 6.68 µM (active).

On to `CCOc1cc(-c2nc(-c3cc(OC)c(OC)c(OC)c3)no2)cc(OCC)c1OCC`, for which the EC50 in [2] was > 160 µM (inactive); in experiment [3] it was > 38 µM (not active). On to `CN1CC[C@]2(C)c3cc(O)ccc3N(C)[C@@H]12`, for which the AC50 in experiment [5] was 31.6 µM (inconclusive) and 12.6 µM (inconclusive); in experiment [7], 15.8 µM (inconclusive) and 31.6 µM (inconclusive); in [8], 12.6 µM (inconclusive).

Turning to `O=C(CC(c1ccccc1)c1ccccc1)NCC1CCCO1` (configuration not stated), the AC50 is 11.2 µM (inconclusive) in [5] and 22.4 µM (inconclusive) in [9].

Turning to `COc1ccc(C2NC(C(=O)O)Cc3c2[nH]c2ccccc32)cc1CN1CCN(c2ccc(F)cc2)CC1` (configuration not stated), the EC50 in [1] was 0.531 µM (active). As to `CCOC(=O)c1oc2ccccc2c1CN1CCCCC1`, the EC50 in [1] was 4.22 µM (active). Turning to `Cc1cc(-c2sccc2C)nc(-n2cccc2)n1`, the EC50 in [1] is 7.5 µM (active). `Fc1ccc(Cn2nnc(-c3ccc(CN4CCOCC4)cc3)n2)cc1`: the IC50 in experiment [4] is 6.09 µM (active).

Regarding `Cc1ccc(S(=O)(=O)Nc2nc(C)c(NC(=O)Nc3ccc(Cl)cc3Cl)s2)cc1`, the AC50 in [5] was 28.2 µM (inconclusive). `COc1ccc(-n2c(=O)c(-c3cc(F)cc(F)c3)nc3cnc(N4CCOCC4)nc32)cc1`: the AC50 is 20 µM (inconclusive) in experiment [5], 15.8 µM (inconclusive) in experiment [7] and 15.8 µM (inconclusive) in experiment [9]. As to `O=c1cc(N2CCCCC2)c(-c2ccccc2)nn1Cc1ccccc1Cl`, in experiment [5], the AC50 was 28.2 µM (inconclusive). On to `CCOC(=O)C1=C(CSc2nc(-c3ccccc3)ccc2C#N)OC(N)=C(C#N)C1c1ccccc1` (configuration not stated), for which the IC50 in [4] was > 100 µM (inactive). For `CC12CCC(C(=O)NNc3ccc([N+](=O)[O-])cc3)(CC1=O)C2(C)C` (configuration not stated), the EC50 in experiment [2] was > 150 µM (inconclusive); in experiment [3], > 38 µM (not active). For `COCCn1c(SCc2ccc(OC)c(F)c2)nc2ccccc2c1=O`, the EC50 in experiment [10] is 2.24 µM (active); in [11], 31.8 µM (active); in experiment [1], 2.99 µM (active). Consider `O=C(c1ccncc1)N1CCC2(CC1)CN(Cc1cc(C(F)(F)F)cc(C(F)(F)F)c1)C2`, for which the AC50 in [5] was 31.6 µM (inconclusive).

In the case of `CN(C)c1nccc(N(Cc2ccccc2)Cc2ccccc2)c1C#N`, the half-maximal activity concentration (AC50) in experiment [5] was 10 µM (inconclusive). Take `CCOc1ccc(N2C(=O)c3cccnc3C2=O)cc1`: the results for the AC50 in [5] and in experiment [8] were 0.178 µM (inconclusive) and 7.94 µM (inconclusive), respectively.

Consider `CC(=O)Nc1ccc(-c2nnc(SCC(=O)c3ccc4c(c3)Cc3ccccc3-4)n2C)cc1`, for which the AC50 was 14.1 µM (inconclusive) in [5] and 6.31 µM (inconclusive) in experiment [6]. On to `COc1ccc2[nH]cc(CCNc3cc(-c4ccccc4C(F)(F)F)ncn3)c2c1`, for which the results for the AC50 in [5] and in experiment [8] were 20 µM (inconclusive) and 1 µM (inconclusive), respectively.

Take `COc1ccc(C(CNc2ccc(C(F)(F)F)cn2)N(C)C)cc1OC` (configuration not stated): the 50% effective concentration (EC50) in experiment [1] is 0.299 µM (active).

`CCOC(=O)C1CCN(C2CCN(C(=O)c3oc4c(C)c(C)ccc4c3C)CC2)CC1`: the EC50 in experiment [1] is 4.22 µM (active). With `CN(C)CCN1C(=O)C2C(C(=O)Nc3cc(Cl)cc(Cl)c3)C3C=CC2(O3)C1C(=O)NC1CCCCC1` (configuration not stated), the EC50 in experiment [1] was 6.68 µM (active); in experiment [12], > 260 µM (inactive). In the case of `CCCOc1ccc(Br)cc1/C=N/O`, the EC50 in experiment [1] is 1.68 µM (active).
